The values below come from US11833156B2, “Heterocyclic compounds as pad inhibitors” (JUBILANT EPIPAD LLC, priority 2017, dated 2023).

Experiment [1] has as its target T1, PAD4 enzyme (Homo sapiens (Human), UniProt Q9UM07). In words: FP Binding Assay. The following applies: for IC50: PAD4 1 uM, 10 nM fluorescein labelled probe JPAD-00085. The method, then:
Binding of compounds with PAD4 enzyme was detected by FP assay. PAD4 enzyme was diluted to 1 uM in assay buffer (100 mM HEPES, 50 mM NaCl, 1 mM DTT, 5% Glycerol and 1 mM CHAPS) and added to wells containing various concentration of compounds or DMSO vehicle (1%) in a 384 well black plate. 10 nM of fluorescein labelled probe (JPAD-00085) was added to the plate. Assay plate was incubated for 60 minutes at room temperature before measuring FP reading at FP module (λex 485/λem 535 nm) on Pherastar. IC50 was calculated using XL-fit software model 205. (Ref: Nat Chem Biol. 2015 March; 11(3):189-91).

Experiment [2] concerns the target T1, PAD4 enzyme. The experiment can be described thus: Ammonia Release Biochemical Assay (citrullination detected via ammonia release). The note with it: PAD4 120 nM, substrate BAEE, 60-min preincubation, read-out: NH3 release. Put shortly:
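PAD4 (diluted to 120 nM) was preincubated 60 min at room temperature with compound (1% DMSO final) in HEPES pH 7.4 with DTT and BSA, then reacted 60 min with 1.5 mM BAEE in Ca2+-containing buffer. Ammonia released was detected after EDTA stop with o-phthalaldehyde/DTT (90 min, fluorescence ex 405/em 460 nm), giving IC50.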

T1 sequence (Q9UM07 whole entry): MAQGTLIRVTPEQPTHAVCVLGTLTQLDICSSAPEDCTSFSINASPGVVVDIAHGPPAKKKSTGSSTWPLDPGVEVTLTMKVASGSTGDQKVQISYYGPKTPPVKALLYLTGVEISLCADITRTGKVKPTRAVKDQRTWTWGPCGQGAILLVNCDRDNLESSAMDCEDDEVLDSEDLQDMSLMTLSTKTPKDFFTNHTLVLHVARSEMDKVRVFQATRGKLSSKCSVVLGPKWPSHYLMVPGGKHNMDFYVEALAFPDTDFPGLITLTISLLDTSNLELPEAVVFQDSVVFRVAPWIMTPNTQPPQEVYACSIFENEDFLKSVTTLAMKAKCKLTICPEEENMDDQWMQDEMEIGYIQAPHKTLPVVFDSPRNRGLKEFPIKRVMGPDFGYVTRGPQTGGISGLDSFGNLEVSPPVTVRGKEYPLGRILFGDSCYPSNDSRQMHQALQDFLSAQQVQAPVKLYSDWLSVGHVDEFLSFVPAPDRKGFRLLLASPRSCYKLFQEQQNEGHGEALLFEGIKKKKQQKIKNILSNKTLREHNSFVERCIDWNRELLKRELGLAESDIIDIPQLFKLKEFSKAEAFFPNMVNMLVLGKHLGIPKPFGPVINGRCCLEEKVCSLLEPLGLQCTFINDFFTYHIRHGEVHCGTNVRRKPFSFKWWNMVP

For the compound `N[C@@H]1CCCN(C(=O)c2cc3c4c(c2)nc(-c2cc5ccccc5n2Cc2cccnc2)n4CCN3)C1` [Example 66, (R)-(3-aminopiperidin-1-yl)(2-(1-(pyridin-3-ylmethyl)-1H-indol-2-yl)-5,6-dihydro-4H-imidazo [1,5,4-de]quinoxalin-8-yl)methanone], the figures for the IC50 in experiment [1] and in experiment [2] were 1000 to 10000 nM and no more than 1000 nM, respectively.
For `N[C@@H]1CCCN(C(=O)c2cc3c4c(c2)nc(-c2cc5ccc(F)cc5n2CC2CC2)n4CCN3)C1` [Example 65, (R)-(3-aminopiperidin-1-yl)(2-(1-(cyclopropylmethyl)-6-fluoro-1H-indol-2-yl)-5,6-dihydro-4H-imidazo [1,5,4-de]quinoxalin-8-yl)methanone] the same measures were no more than 1000 nM and no more than 1000 nM.
On to `N[C@@H]1CCCN(C(=O)c2cc3c4c(c2)nc(-c2cc5cc(F)ccc5n2CC2CC2)n4CCO3)C1` [Example 9, (R)-(3-aminopiperidin-1-yl)(2-(1-(cyclopropylmethyl)-5-fluoro-1H-indol-2-yl)-3,4-dihydro-5-oxa-1,2a-diazaacenaphthylen-7-yl)methanone], for which the IC50 in experiment [1] and in experiment [2] was no more than 1000 nM throughout.
Turning to `CS(=O)(=O)N1CCn2c(-c3cc4ccccc4n3CC3CC3)nc3cc(C(=O)N4CCC[C@@H](N)C4)cc1c32` [Example 76, (R)-(3-aminopiperidin-1-yl)(2-(1-(cyclopropylmethyl)-1H-indol-2-yl)-6-(methylsulfonyl)-5,6-dihydro-4H-imidazo[1,5,4-de]quinoxalin-8-yl)methanone], the values for the IC50 in experiment [1] and in experiment [2] were 1000 to 10000 nM and no more than 1000 nM, respectively.
Regarding `N[C@@H]1CCCN(C(=O)c2cc3c4c(c2)nc(-c2cc5ccccc5n2Cc2ccccc2F)n4CCO3)C1` [Example 14, (R)-(3-aminopiperidin-1-yl)(2-(1-(2-fluorobenzyl)-1H-indol-2-yl)-3,4-dihydro-5-oxa-1,2a-diazaacenaphthylene-7-yl)methanone], the “inhibition of PAD4 enzyme activity in FP Binding assay” value in experiment [1] is on record as “actively inhibiting PAD4 enzyme activity”. Moreover, the IC50 in experiment [2] fell in the range of 1000 to 10000 nM.
Consider `N[C@@H]1CCCN(C(=O)c2cc3c4c(c2)nc(-c2cc5ccccc5n2Cc2cccnc2)n4CCO3)C1` [Example 16, (R)-(3-aminopiperidin-1-yl)(2-(1-(pyridin-3-ylmethyl)-1H-indol-2-yl)-3,4-dihydro-5-oxa-1,2a-diazaacenaphthylen-7-yl)methanone], for which the IC50 is 1000 to 10000 nM in experiment [1] and no more than 1000 nM in experiment [2].
